Structures can show the parent of a compound that is named as a salt.
What was measured:
Assay type in all cases: in vivo
[1] = "writhing test" (analgesic activity); conditions: p.o.; for ED50: Mus musculus, po
Text: (§1) In the Table which follows are compiled the ED50 values obtained in this test with representative compounds of formula I. The Table also contains data relating to the acute toxicity of the compounds, that is, LD50 in mg/kg in the case of single oral administration to mice.

[2] = acute toxicity, single oral administration to mice; conditions: mouse, in vivo
Text: as §1

mice = experiment: acute toxicity, single oral administration to mice
Text: as §1

For `CN(C)CCC1(c2cccc(O)c2)C=CCCC1` (racemic) [rac. 1-(m-Hydroxyphenyl)-N,N-dimethyl-2-cyclohexene-1-ethylamine hydrochloride], which ED50 ([1]; 0.5 h, after 30 min.) is on record?
The ED50 was 41 mg/kg.

What about the ED50 ([1]; 1 h, after 60 min.) of the same molecule?
The ED50 was 26 mg/kg.

What about the LD50 [2] of the same molecule?
Its LD50 is 250 to 500 mg/kg.

For `COc1cccc(C2(CCN(C)C)C=CCCC2)c1` (racemic) [rac. 1-(m-methoxyphenyl)-N,N-dimethyl-2-cyclohexene-1-ethylamine hydrochloride], which ED50 ([1]; 0.5 h, after 30 min.) is on record?
Its ED50 is 33 mg/kg.

And the ED50 ([1]; 1 h, after 60 min.)?
Its ED50 is 35 mg/kg.

And the LD50 [2]?
The LD50 was 150 to 300 mg/kg.

What does the source list for `COc1cccc(C2(CCN(C)C)C=CCCC2)c1.Cl` (single isomer, unassigned; (+)) [(+)-1-(m-Methoxyphenyl)-N,N-dimethyl-2-cyclohexene-1-ethylamine hydrochloride]?
ED50 ([1]; 1 h, after 60 min.): 24 mg/kg; LD50 [2]: 250 to 500 mg/kg

Which “ED50 in the "writhing test"” value ([1]; after 60 min., hydrochloride, 60 min) does the source give for `COc1cccc(C2(CCN(C)C)C=CCCC2)c1.Cl` (single isomer, unassigned; (-)) [(-)-1-(m-Methoxyphenyl)-N,N-dimethyl-2-cyclohexene-1-ethylam] [(-)-1-(m-Methoxyphenyl)-N,N-dimethyl-2-cyclohexene-1-ethylamine hydrochloride] here?
Its value is 19 mg/kg.

And the LD50 (mice)?
The LD50 was 250 to 500 mg/kg.

— patent US4336268A, “Cyclohexene derivative analgesics” (Hoffmann-La Roche Inc., priority 1980, dated 1982)
